The values that follow come from EP0198172A1, “Pharmaceutical preparation” (HERMES Fabrik pharmazeutischer Präparate Franz Gradinger …, priority 1985, dated 1986).

Molecules are shown by their SMILES.

This assay has as its system Patienten. Put plainly: Double-blind crossover clinical study, impedance cardiography (I.C.) in six patients. In kind it is in vivo, Menschen. The source says: Im folgenden werden klinische Versuche am Menschen beschrieben, die die Wirkungen der erfindungsgemäßen pharmazeutischen Zubereitung zeigen: • Tabelle 1 zeigt in schematischer Darstellung eine Doppel-Blind-Studie mit der erfindungsgemäßen pharmazeutischen Zubereitung.
Dabei bedeutet "I.C."Impedanz Cardiographie.
Zur Durchführung der Impedanz Cardiographie wird insbesondere verwiesen auf "Biomedical and clinical aspects for coenzyme Q, Volume 1 (1977) Volume 2 (1980), Volume 3 (1981), Volume 4 (1984), Elsevier/North-Holland Biomedical Press, Amsterdam-New York-Oxford" und auf Lee E. Baker (ebenda, Vol. 2,.Seite 289) und schließlich W.G. Kubicek, Aerospace Med. 37 (12), 1208, 1966.
Die Wirkungen der erfindungsgemäßen pharmazeutischen Zubereitung auf das Herz-Schlag-Volumen (SV), das Herz-Zeit-Volumen (CO) und den Heather Index (HI) von sechs Patienten wurden ermittelt und in der folgenden Tabelle 2 zusammengestellt.
Den sechs Patienten wurden gemäß Tabelle II gegeben: • CoQ10 : 3 x 33 mg = 99 mg täglich • Placebo : Oleum arachidis Vol.(eine Kapsel 0,5 ml) • CoQ10 + Vitamin E : (3 x 33 mg) + (3 x 100 mg) zusammen in 3 Kapseln täglich gelöst in Oleum arachidis • Vitamin E : 3 x 100 mg täglich (= 3 Kapseln . täglich). [formula]

[1] abbreviates: oral capsules daily, impedance cardiography, result in words.

For the compound `COC1=C(OC)C(=O)C(C/C=C(\C)CC/C=C(\C)CC/C=C(\C)CC/C=C(\C)CC/C=C(\C)CC/C=C(\C)CC/C=C(\C)CC/C=C(\C)CC/C=C(\C)CCC=C(C)C)=C(C)C1=O` [CoQ10, 2.3-Dimethoxy-5-methyl-1.4-benzochinon mit einer isoprenoiden Seitenkette, mit 10 Dihydroisopren-Einheiten], the “Steigerung des Herzminutenvolumens (CO)” value (oral capsules daily (CoQ10 3 x 33 mg; combination 3 x 33 mg + 3 x 100 mg Vitamin E), versus controls, placebo and Vitamin E alone) was about 20%. Under setting [1], the “Heather Index (HI)” value is reported as “Ähnliches gilt” and the “Schlagvolumen (SV)” value was “Ähnliches gilt”.
